According to patent US7452865B2, “Antagonistic analogs of GH RH (2003)” (The Administrare's of the Tulane Educational Fund, priority 2004, dated 2008):
Values joined by “and” are separate entries in the source; they are usually repeats but may differ in a detail not shown here. Identical values can stand only once.

Tested on: hGH-RH(1-29)NH2 induced GH release
Assay: Inhibition of GH release in superfused rat pituitary system
Type: cell-based
Settings: antagonist 30 nM; for GH response (% of control) 0 min: 1 nM hGH-RH(1-29)NH2 at 0 min; for GH response (% of control) 30 min: 1 nM hGH-RH(1-29)NH2 at 30 min; for GH response (% of control) 60 min: 1 nM hGH-RH(1-29)NH2 at 60 min; for GH response (% of control) 90 min: 1 nM hGH-RH(1-29)NH2 at 90 min; for GH response (% of control) 120 min: 1 nM hGH-RH(1-29)NH2 at 120 min
Method: The analogs were tested in vitro in a test described earlier (S. Vigh and A. V Schally, Peptides 5:241-[…], 1984) with modification (Z. Rekasi and A. V. Schally, P.N.A.S. 90:2146-2149, 1993).
Briefly, the cells are preincubated with peptides for 9 minutes (3 mL) at various concentrations. Immediately after the incubation, 1 nM hGH-RH(1-29)NH2 is administered for 3 minutes (1 mL) 10 minute response). To check the duration of the antagonistic effect of the analogue, 1 nM hGH-RH(1-29)NH2 is applied 30, 60, 90, and 120 minutes later for 3 minutes [30, 60, 90, 120 min responses]. Net integral values of the GH responses are evaluated. GH responses are compared to and expressed as percent of the original GH response induced by 1 nM GH-RH(1-29)NH2 The effect of the new antagonists are compared to that of [Ac-Tyr^1, D-Arg^2]hGH-RH(1-29)NH2, the “Standard antagonist”.
Rat GH levels in aliquots of undiluted and diluted superfusion samples were measured by double-antibody radioimmunoassay using materials supplied by the National Hormone and Pituitary Program, Baltimore, Md. The results of RIA were analyzed with a computer program developed in our institute (V. Csernus and A. V. Schally, in Neuroendocrine Research Methods, Harwood Academic (Greenstein, B. D. ed., London, pp. 71-109, 1991), hereby incorporated by reference.

Row | Substance | GH response (% of control) 0 min | GH response (% of control) 30 min | GH response (% of control) 60 min | GH response (% of control) 90 min | GH response (% of control) 120 min
1 | [Hca-Tyr^1, D-Arg^2, Phe(pCl)^6, Har^9, Tyr(Me)^10, Abu^15, Nle^27, D-Arg^28, Har^29, Agm^30]hGH-RH(1-30) [Peptide 59] | 72 % of control and 61 % of control and 93 % of control and 47 % of control | 49 % of control and 50 % of control and 43 % of control and 27 % of control | 46 % of control and 48 % of control and 60 % of control and 37 % of control | 38 % of control and 47 % of control and 57 % of control and 44 % of control | 76 % of control and 47 % of control
2 | [PhAc-Tyr^1, D-Arg^2, Phe(pCl)^6, Arg^9, Cha^10, Abu^15, Nle^27, D-Arg^28, Har^29]hGH-RH(1-29)NH2 [Peptide 33] | 97 % of control | 89 % of control | 78 % of control | 97 % of control | 82 % of control
3 | [PhAc-Tyr^1, D-Arg^2, Phe(pCl)^6, Cit^8, Cit^9, Abu^15, Nle^27, Har^28, D-Arg^29]hGH-RH(1-29)NH2 [Peptide 24] | 56 % of control | 13 % of control | 18 % of control | 34 % of control | 60 % of control
4 | [PhAc-Tyr^1, D-Arg^2, Phe(pCl)^6, Cit^9, Abu^15, Nle^27, Har^28, D-Arg^29]hGH-RH(1-29)NH2 [Peptide 28] | 68 % of control | 7 % of control | 8 % of control | 20 % of control | 34 % of control
5 | [PhAc-Tyr^1, D-Arg^2, Phe(pCl)^6, Arg^9, Abu^15, Nle^27, Har^28, D-Arg^29, hGH-RH(1-29)NH2 [Peptide 15] | 28 % of control | 13 % of control | 11 % of control | 36 % of control | 21 % of control
6 | [PhAc-Tyr^1, D-Arg^2, Phe(pCl)^6, Amp^9, Abu^15, Nle^27, D-Arg^28, Har^29]hGH-RH(1-29)NH2 [Peptide 68] | 37 % of control | 22 % of control | 33 % of control | 29 % of control | 33 % of control
7 | [CH3(CH2)12CO-Tyr^1, D-Arg^2, Phe(pCl)^6, Arg^9, Abu^15, Nle^27, D-Arg^28, Har^29]hGH-RH(1-29)NH2 [Peptide 10] | 60 % of control | 30 % of control | 36 % of control | 37 % of control | 44 % of control
